US10287267B2, “Isoquinolin-3-yl carboxamides and preparation and use thereof” (Samumed, LLC, priority 2016, dated 2019)
Read-outs that look alike come from different tables or passages of the source.

Legend:
[1] = tested on: secreted β-amyloid 40 (Aβ40) peptide; experiment: Secreted β-amyloid 40 (Aβ40) peptide in APP overexpressing SH-SY5Y-APP cells; type: cell-based; settings: Homo sapiens, overnight (16-18 hours)
Method: Representative compounds were screened using the cell-based assay procedure for secreted β-amyloid 40 (Aβ40) peptide in an APP overexpressing cell line described below.
SH-SY5Y cells were infected with lentivirus to overexpress amyloid (A4) beta precursor protein (APP), hereafter referred to as the SH-SY5Y-APP cells.
SH-SY5Y cells were seeded onto 6-well plates at
The cell assay procedure start 18 h prior to treatment, as SH-SY5Y-APP cells were seeded onto 96-well plates at
At this time, designated wells were seeded with SH-SY5Y cells that were seeded and treated with puromycin at
Cells were exposed overnight (16-18 hours) in a 37° C. incubator before supernatant was harvested. […] The original plates with seeded cells were tested for cytotoxicity by measure of adenosine triphosphate (ATP) release by adding CellTiter-Glo® diluted 1:4 in distilled water (G7573, Promega) and transferring lysed cells to a completely black 96-well plate to be read with the Cytation3. Plates containing supernatant were spun down at 1200 g for 10 minutes to remove any cellular debris. Supernatant was then diluted 1:2 with a diluent from V-PLEX Aβ40 Peptide (6E10) Kit and directly tested for secreted Aβ40 peptide (K150SKE, Meso Scale Discovery).

[2] = molecular target: recombinant DYRK1A kinase (Homo sapiens (Human), UniProt Q13627); experiment: DYRK1A kinase assay (Ser/Thr 18 peptide Z-lyte FRET); type: biochemical; settings: 30 μM ATP, 1 h room temperature;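 note: Read-out is the coumarin to fluorescein emission ratio, referenced to unphosphorylated (0%) and phosphorylated (100%) Ser/Thr 18 peptide controls, values from dose-response curves by non-linear regression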
[3] = tested on: Tau phosphorylation at Ser396 (pSer396); experiment: Tau phosphorylation assay (pSer396 ELISA / western blot) in SH-SY5Y cells; type: cell-based, human; settings: Homo sapiens, read-out: pSer396 Tau EC50;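 note: EC50 for reduction of Tau pSer396 in lysed cells, measured by colorimetric ELISA or chemiluminescent western blot, both using the same pSer396 antibody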
IL-6 = IL-6 inhibition in LPS-stimulated human peripheral blood mononuclear cells (HTRF); type: cell-based; settings: Homo sapiens, PBMC; for EC50: Table 9, huPBMCs, LPS 50 ng/mL, 22 hours, dose-response starting from 10 μM; for inhibition at 10 µM: read-out: percent value in parentheses beside EC50 >10 μM;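 for all read-outs here: IL-6 detected by HTRF with an XL665- and Cryptate-labelled anti-IL-6 antibody pair, samples run in duplicate, EC50 obtained from a four-parameter Levenberg-Marquardt curve fit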
Method: After 22 hour incubation, a mixture of anti-IL6 XL665 and anti-IL-6 Cryptate diluted in reconstitution buffer (Catalog #62IL6PEC, Cisbio Inc., Bedford, Mass.) was added to each well. […] All samples were processed in duplicate. […] EC50 was determined using software generated by Dotmatics Limited (Windhill Bishops Stortford Herts, UK) using the Levenberg-Marquardt 4 parameter fitting procedure with finite different gradients.

[4] = tested on: α-smooth muscle actin (αSMA) positive LL29 cells; experiment: Inhibition of fibrotic process: αSMA in TGF-β1 treated primary human fibroblasts from IPF patients; type: cell-based; settings: Homo sapiens, Fibroblast; for EC50: 96 h, Table 8, LL29 fibroblasts from IPF patients, TGF-β1 20 ng/mL, 4 days, dose-response 10 μM to 0.94 nM; for inhibition at 10 µM: read-out: percent value in parentheses beside EC50 >10 μM;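 for all read-outs here: controls were TGF-β1 stimulated wells with DMSO vehicle (positive) and cells given DMSO alone (negative), cultured in F12 medium with 1% fetal bovine serum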
[5] = tested on: Wnt pathway (Sp5-Luc reporter, TCF/LEF binding sites) in SW480 colon carcinoma cells; experiment: Screening assay for Wnt activity: Sp5-Luc reporter gene assay; type: cell-based, human; settings: Homo sapiens; for EC50: Sp5-Luc reporter, SW480 cells, 36 to 48 hours; for inhibition at 10 µM: SW480, read-out: percent inhibition at 10 μM;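 for all read-outs here: firefly luciferase luminescence read in stably transduced SW480 cells carrying the Sp5 promoter reporter with eight TCF/LEF sites, compounds given in 0.1% DMSO final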
Method: The screening assay for Wnt activity is described as follows.
Following incubation, 15 μl of BriteLite Plus luminescence reagent (Perkin Elmer) was added to each well of the 384-well assay plates. The plates were placed on an orbital shaker for 2 min and then luminescence was quantified using the Envision (Perkin Elmer) plate reader.

[6] = tested on: SW480 colon carcinoma cells; experiment: Cell viability assay (CellTiter-Glo); type: cell-based, human; settings: Homo sapiens; for EC50: 96 h, SW480 cells, CellTiter-Glo, four days incubation; for inhibition at 10 µM: SW480, read-out: percent inhibition at 10 μM
recombinant GSK3β kinase = recombinant GSK3β kinase (Homo sapiens (Human), UniProt P49841); experiment: GSK3β kinase assay (Ser/Thr 09 peptide Z-lyte FRET); type: biochemical; settings: 46 μM ATP, 1 h room temperature;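 note: kinase activity read as coumarin to fluorescein emission ratio, 11-point threefold dilutions from 10 µM to 0.0003 µM in duplicate, unphosphorylated and phosphorylated peptide as 0% and 100% controls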
[7] = SH-SY5Y cells, overnight (16-18 h) exposure

Sequence of recombinant GSK3β kinase (P49841 whole entry): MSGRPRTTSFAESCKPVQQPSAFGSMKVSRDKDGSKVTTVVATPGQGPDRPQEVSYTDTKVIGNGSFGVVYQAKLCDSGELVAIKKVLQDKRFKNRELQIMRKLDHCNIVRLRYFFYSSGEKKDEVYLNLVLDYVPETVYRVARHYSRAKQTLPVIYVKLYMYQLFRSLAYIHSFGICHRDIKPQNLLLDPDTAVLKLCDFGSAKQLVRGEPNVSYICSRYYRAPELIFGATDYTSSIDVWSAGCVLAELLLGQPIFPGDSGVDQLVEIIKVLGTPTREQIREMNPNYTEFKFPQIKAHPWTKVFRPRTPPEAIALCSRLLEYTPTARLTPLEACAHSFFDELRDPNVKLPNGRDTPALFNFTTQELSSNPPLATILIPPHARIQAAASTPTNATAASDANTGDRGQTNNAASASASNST

Compound: Cn1cc(-c2ccc3cnc(NC(=O)C4CC4)cc3c2)cn1 [Compound 1, N-(6-(1-Methyl-1H-pyrazol-4-yl)isoquinolin-3-yl)cyclopropanecarboxamide]
- IC50 [1]: 3.96 µM
- EC50 [2]: 0.004 µM
- EC50 [3, 7]: 0.149 µM
- EC50 (IL-6): 0.338 µM
- EC50 [4]: 0.135 µM
- EC50 [5]: 0.65 µM
- EC50 [6]: 0.13 µM
- EC50 (recombinant GSK3β kinase): 0.008 µM

Compound: Cn1cc(-c2ccc3cnc(NC(=O)C4CCNCC4)cc3c2)cn1 [Compound 72, N-(6-(1-methyl-1H-pyrazol-4-yl)isoquinolin-3-yl)piperidine-4-carboxamide]
- IC50 [1]: 2.1 µM
- EC50 [2]: 0.0025 µM
- EC50 [3, 7]: 0.757 µM
- EC50 (IL-6): 1.13 µM
- EC50 [4]: 0.096 µM
- EC50 [5]: 0.92 µM
- EC50 [6]: 0.911 µM
- EC50 (recombinant GSK3β kinase): 0.064 µM

Compound: Cn1cc(-c2ccc3cnc(NC(=O)C4CCN(C5CC5)CC4)cc3c2)cn1 [Compound 76, 1-Cyclopropyl-N-(6-(1-methyl-1H-pyrazol-4-yl)isoquinolin-3-yl)piperidine-4-carboxamide]
- IC50 [1]: 1.2 µM
- EC50 [2]: 0.0023 µM
- EC50 [3, 7]: 0.219 µM
- EC50 (IL-6): 1.13 µM
- EC50 [4]: 0.087 µM
- EC50 [5]: 0.705 µM
- EC50 [6]: 1.56 µM
- EC50 (recombinant GSK3β kinase): 0.031 µM

Compound: Cn1cc(-c2ccc3cnc(NC(=O)C4CCN(CC(C)(C)C)CC4)cc3c2)cn1 [Compound 78, N-(6-(1-Methyl-1H-pyrazol-4-yl)isoquinolin-3-yl)-1-neopentylpiperidine-4-carboxamide]
- IC50 [1]: 0.889 µM
- EC50 [2]: 0.0047 µM
- EC50 [3, 7]: 0.265 µM
- EC50 (IL-6): 2.94 µM
- EC50 [4]: 0.108 µM
- EC50 [5]: 1 µM
- EC50 [6]: 1.84 µM
- EC50 (recombinant GSK3β kinase): 0.063 µM

Compound: Cn1cc(-c2ccc3cnc(NC(=O)C4CCN(CCC(F)(F)F)CC4)cc3c2)cn1 [Compound 82, N-(6-(1-Methyl-1H-pyrazol-4-yl)isoquinolin-3-yl)-1-(3,3,3-trifluoropropyl) piperidine-4-carboxamide]
- IC50 [1]: 5.1 µM
- EC50 [2]: 0.0009 µM
- EC50 [3, 7]: 0.315 µM
- EC50 (IL-6): 1.19 µM
- EC50 [4]: 0.156 µM
- EC50 [5]: 4.95 µM
- EC50 [6]: 2.71 µM
- EC50 (recombinant GSK3β kinase): 0.022 µM

Compound: Cn1cc(-c2ccc3cnc(NC(=O)C4CCN(CC(F)F)CC4)cc3c2)cn1 [Compound 84, 1-(2,2-Difluoroethyl)-N-(6-(1-methyl-1H-pyrazol-4-yl)isoquinolin-3-yl) piperidine-4-carboxamide]
- IC50 [1]: 4.4 µM
- EC50 [2]: 0.0013 µM
- EC50 [3, 7]: 0.454 µM
- EC50 (IL-6): 2.46 µM
- EC50 [4]: 0.148 µM
- EC50 [5]: 1.9 µM
- EC50 [6]: 1.95 µM
- EC50 (recombinant GSK3β kinase): 0.02 µM

Compound: Cn1cc(-c2ccc3cnc(NC(=O)C4CCN(CC(C)(C)F)CC4)cc3c2)cn1 [Compound 85, 1-(2-Fluoro-2-methylpropyl)-N-(6-(1-methyl-1H-pyrazol-4-yl)isoquinolin-3-yl)piperidine-4-carboxamide]
- IC50 [1]: 1.3 µM
- EC50 [2]: 0.0014 µM
- EC50 [3, 7]: 0.392 µM
- EC50 (IL-6): 1.15 µM
- EC50 [4]: 0.097 µM
- EC50 [5]: 1.2 µM
- EC50 [6]: 1.64 µM
- EC50 (recombinant GSK3β kinase): 0.029 µM

Compound: Cn1cc(-c2ccc3cnc(NC(=O)[C@@H]4CCCNC4)cc3c2)cn1 [Compound 111, (R)—N-(6-(1-Methyl-1H-pyrazol-4-yl)isoquinolin-3-yl)piperidine-3-carboxamide]
- IC50 [1]: 0.272 µM
- EC50 [2]: 0.0039 µM
- EC50 [3, 7]: 0.597 µM
- EC50 [4]: 0.28 µM
- EC50 [5]: 0.743 µM
- EC50 [6]: 0.526 µM
- EC50 (recombinant GSK3β kinase): 0.04 µM

Compound: Cn1cc(-c2ccc3cnc(NC(=O)CN4CCCCC4)cc3c2)cn1 [Compound 115, N-(6-(1-Methyl-1H-pyrazol-4-yl)isoquinolin-3-yl)-2-(piperidin-1-yl) acetamide]
- IC50 [1]: 0.956 µM
- EC50 [2]: 0.0034 µM
- EC50 [3, 7]: 0.311 µM
- EC50 (IL-6): 1.91 µM
- EC50 [4]: 0.605 µM
- EC50 [5]: 2.4 µM
- EC50 [6]: 3.5 µM
- EC50 (recombinant GSK3β kinase): 0.03 µM

Compound: Cn1nncc1-c1ccc2cnc(NC(=O)C3CCN(CCC(F)(F)F)CC3)cc2c1 [Compound 248, N-(6-(1-Methyl-1H-1,2,3-triazol-5-yl)isoquinolin-3-yl)-1-(3,3,3-trifluoropropyl)piperidine-4-carboxamide]
- IC50 [1]: > 10 µM
- EC50 [2]: 0.0374 µM
- EC50 [3, 7]: 0.905 µM
- EC50 (IL-6): 9.73 µM
- EC50 [4]: 7.92 µM
- EC50 [5]: > 10 µM
- EC50 [6]: > 10 µM
- EC50 (recombinant GSK3β kinase): 0.266 µM

Compound: Cn1cncc1-c1ccc2cnc(NC(=O)C3CCC(F)(F)CC3)cc2c1 [Compound 263, 4,4-Difluoro-N-(6-(1-methyl-1H-imidazol-5-yl)isoquinolin-3-yl) cyclohexanecarboxamide]
- IC50 [1]: 5.3 µM
- EC50 [2]: 0.0013 µM
- EC50 [3, 7]: 0.119 µM
- EC50 (IL-6): 0.451 µM
- EC50 [4]: 0.134 µM
- EC50 [5]: 1.3 µM
- EC50 [6]: 1.29 µM
- EC50 (recombinant GSK3β kinase): 0.018 µM

Compound: Cn1cncc1-c1ccc2cnc(NC(=O)C3C(C)(C)C3(C)C)cc2c1 [Compound 269, 2,2,3,3-Tetramethyl-N-[6-(3-methylimidazol-4-yl)-3-isoquinolyl]cyclopropanecarboxamide]
- IC50 [1]: > 10 µM
- EC50 [2]: 0.005 µM
- EC50 ([3]; SH-SY5Y): 4.3 µM
- EC50 (IL-6): 3.39 µM
- EC50 [4]: 0.396 µM
- EC50 [5]: 3.62 µM
- EC50 [6]: 2.33 µM
- EC50 (recombinant GSK3β kinase): 1.02 µM

Compound: CC(C)CN1CCC(F)(C(=O)Nc2cc3cc(-c4cnn5c4CN(CCF)CC5)ccc3cn2)CC1 [Compound 1023, 4-Fluoro-N-(6-(5-(2-fluoroethyl)-4,5,6,7-tetrahydropyrazolo[1,5-a]pyrazin-3-yl)isoquinolin-3-yl)-1-isobutylpiperidine-4-carboxamide]
- EC50 [2]: 0.0087 µM
- EC50 [3, 7]: 1.8 µM
- inhibition at 10 µM (IL-6): 20.7%
- EC50 (IL-6): > 10 µM
- EC50 [4]: 4.67 µM
- inhibition at 10 µM [5]: 38.2%
- EC50 [5]: > 10 µM
- EC50 [6]: > 10 µM
- inhibition at 10 µM [6]: 39.9%
- EC50 (recombinant GSK3β kinase): 0.838 µM

Compound: CN1CCN(CC(=O)Nc2cc3cc(-c4cnn5c4CN(CCF)CC5)ccc3cn2)CC1 [Compound 1024, N-(6-(5-(2-Fluoroethyl)-4,5,6,7-tetrahydropyrazolo[1,5-a]pyrazin-3-yl)isoquinolin-3-yl)-2-(4-methylpiperazin-1-yl)acetamide]
- EC50 [2]: 0.017 µM
- EC50 [3, 7]: 1.2 µM
- inhibition at 10 µM (IL-6): 33.1%
- EC50 (IL-6): > 10 µM
- EC50 [4]: 0.549 µM
- EC50 [5]: 3.51 µM
- EC50 [6]: 6.77 µM
- EC50 (recombinant GSK3β kinase): 0.15 µM

Compound: Cc1nnc(-c2ccc3cnc(NC(=O)CN4CC5CCC(C4)O5)cc3c2)s1 [Compound 1029, 2-(8-Oxa-3-azabicyclo[3.2.1]octan-3-yl)-N-(6-(5-methyl-1,3,4-thiadiazol-2-yl)isoquinolin-3-yl)acetamide]
- EC50 [2]: 0.0257 µM
- EC50 [3, 7]: 0.239 µM
- inhibition at 10 µM (IL-6): 7.3%
- EC50 (IL-6): > 10 µM
- EC50 [4]: > 10 µM
- inhibition at 10 µM [4]: 31.8%
- EC50 [5]: 3.34 µM
- EC50 [6]: > 10 µM
- inhibition at 10 µM [6]: 34.6%
- EC50 (recombinant GSK3β kinase): 0.018 µM

Compound: C[C@@H]1CCCN1CC(=O)Nc1cc2cc(-c3cnc4n3CCNC4)ccc2cn1 [Compound 1030, (R)-2-(2-Methylpyrrolidin-1-yl)-N-(6-(5,6,7,8-tetrahydroimidazo[1,2-a]pyrazin-3-yl)isoquinolin-3-yl)acetamide]
- EC50 [2]: 0.194 µM
- EC50 [3, 7]: 1.2 µM
- inhibition at 10 µM (IL-6): 7.7%
- EC50 (IL-6): > 10 µM
- EC50 [4]: 2.81 µM
- inhibition at 10 µM [5]: 44.8%
- EC50 [5]: > 10 µM
- EC50 [6]: > 10 µM
- inhibition at 10 µM [6]: 19.3%
- EC50 (recombinant GSK3β kinase): 0.39 µM

Compound: CN(CC(=O)Nc1cc2cc(-c3cnc4n3CCNC4)ccc2cn1)C1CCC1 [Compound 1031, 2-(Cyclobutyl(methyl)amino)-N-(6-(5,6,7,8-tetrahydroimidazo[1,2-a]pyrazin-3-yl)isoquinolin-3-yl)acetamide]
- EC50 [2]: 0.0704 µM
- EC50 [3, 7]: 0.969 µM
- inhibition at 10 µM (IL-6): 2%
- EC50 (IL-6): > 10 µM
- EC50 [4]: > 10 µM
- inhibition at 10 µM [4]: 39.2%
- EC50 [5]: 3.97 µM
- EC50 [6]: 3.89 µM
- EC50 (recombinant GSK3β kinase): 0.38 µM

Compound: Cn1cc(-c2ccc3cnc(NC(=O)C45CCN(CC4)CC5)cc3c2)cn1 [Compound 1071, N-(6-(1-Methyl-1H-pyrazol-4-yl)isoquinolin-3-yl)quinuclidine-4-carboxamide]
- EC50 [2]: 0.0165 µM
- EC50 ([3]; SH-SY5Y): 6.9 µM
- inhibition at 10 µM (IL-6): 8.8%
- EC50 (IL-6): > 10 µM
- EC50 [4]: 0.712 µM
- inhibition at 10 µM [5]: 43.2%
- EC50 [5]: > 10 µM
- EC50 [6]: > 10 µM
- inhibition at 10 µM [6]: 26.2%
- EC50 (recombinant GSK3β kinase): 2.73 µM

Compound: CC(C)CN1CCC(F)(C(=O)Nc2cc3cc(-n4ccnn4)ccc3cn2)CC1 [Compound 1074, N-(6-(1H-1,2,3-triazol-1-yl)isoquinolin-3-yl)-4-fluoro-1-isobutylpiperidine-4-carboxamide]
- EC50 [2]: 0.0069 µM
- EC50 [3, 7]: 1.3 µM
- inhibition at 10 µM (IL-6): 5.6%
- EC50 (IL-6): > 10 µM
- EC50 [4]: > 10 µM
- inhibition at 10 µM [5]: 19.7%
- EC50 [5]: > 10 µM
- EC50 [6]: > 10 µM
- inhibition at 10 µM [6]: 25%
- EC50 (recombinant GSK3β kinase): 0.278 µM
